Measurements as given in patent US20240287042A1, “NOVEL COMPOUND HAVING INHIBITORY ACTIVITY AGAINST PENDRIN, AND PHARMACEUTICAL USES THEREOF” (UIF (University Industry Foundation), Yonsei University, priority 2021, published 2024).

Target: T1, human wild-type (WT)-pendrin (Homo sapiens, UniProt O43511)
T1 construct: expressed in transfected cells
T1 sequence (O43511 1-780): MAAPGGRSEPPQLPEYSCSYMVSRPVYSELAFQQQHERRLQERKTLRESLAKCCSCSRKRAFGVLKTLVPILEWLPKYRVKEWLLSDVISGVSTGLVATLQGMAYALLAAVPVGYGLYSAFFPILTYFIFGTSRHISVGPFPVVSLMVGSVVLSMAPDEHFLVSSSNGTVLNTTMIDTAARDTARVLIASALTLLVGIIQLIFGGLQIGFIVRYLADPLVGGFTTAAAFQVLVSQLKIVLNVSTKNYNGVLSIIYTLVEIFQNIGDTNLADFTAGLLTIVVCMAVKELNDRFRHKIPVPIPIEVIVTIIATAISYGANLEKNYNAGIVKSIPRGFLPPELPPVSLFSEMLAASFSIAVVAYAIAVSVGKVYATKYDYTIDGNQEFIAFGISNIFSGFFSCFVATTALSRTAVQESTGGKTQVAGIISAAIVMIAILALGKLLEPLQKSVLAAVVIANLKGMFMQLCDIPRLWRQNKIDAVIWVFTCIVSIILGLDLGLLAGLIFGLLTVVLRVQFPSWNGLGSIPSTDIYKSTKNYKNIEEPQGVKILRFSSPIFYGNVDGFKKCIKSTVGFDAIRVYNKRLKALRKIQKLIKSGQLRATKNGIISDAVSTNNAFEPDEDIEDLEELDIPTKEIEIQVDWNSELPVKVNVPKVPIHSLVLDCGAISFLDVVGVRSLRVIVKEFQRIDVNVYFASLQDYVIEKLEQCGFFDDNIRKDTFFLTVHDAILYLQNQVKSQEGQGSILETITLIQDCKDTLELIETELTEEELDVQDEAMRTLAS
Assay: Pendrin Cl−/I− exchange inhibitory activity, YFP fluorescence in CHO-K1 cells
Type: cell-based
Conditions: CHO-K1; for inhibition at 1 µM: compound concentration 1 μM; for inhibition at 3 µM: compound concentration 3 μM; for inhibition at 10 µM: compound concentration 10 μM; for inhibition at 30 µM: compound concentration 30 μM; for inhibition at 100 µM: compound concentration 100 μM
Protocol: Chinese hamster ovary (CHO)-K1 cells were cultured in DMEM medium containing 10% fetal bovine serum (FBS), 100 units/ml of penicillin and 100 μg/ml streptomycin. CHO-K1 cells were stably transfected with pcDNA3.1 encoding the halide sensor YFP-H148Q/I152L/F46L and human wild-type (WT)-pendrin.
(§1) CHO-K1 cells expressing human WT pendrin and YFP-F46L/H148Q/I152L were plated in 96-well microplates at a density of 2×10^4 cells per well, and cultured for 48 hours. Each well of the cell cultured 96-well plate was washed 2 times with 200 μL of PBS, and filled with 50 μL of HEPES buffered solution (140 mM NaCl, 5 mM KCl, 1 mM MgCl2, 1 mM CaCl2), 10 mM glucose and 10 mM HEPES (pH 7.4)). Test compounds (1 μL) were added to a final concentration of 1, 3, 10, 30 and 100 μM. After culturing at 37° C. for 10 minutes, the 96-well plate was located on the FLUOstar Omega Microplate Reader (BMG Labtech, Ortenberg, Germany) for a fluorescence assay. Fluorescence was recorded continuously (400 ms per point) for 1 second (baseline), whereby each well was assayed individually for pendrin-mediated I-influx. Then 50 μL of Na-substituted HEPES buffered solution (replacing NaCl with NaI) was added using a liquid injector at 1 second, and YFP fluorescence was recorded for 5 seconds. The initial iodide influx rate was determined from the initial slope of fluorescence by nonlinear regression, after the injection of iodide.
as §1, with “Chinese hamster ovary (CHO)-K1 cells were cultured in DMEM medium containing 10% fetal bovine serum (FBS), 100 units/ml of penicillin and 100 μg/ml streptomycin. CHO-K1 cells were stably transfected with pcDNA3.1 encoding the halide sensor YFP-H148Q/I152L/F46L and human wild-type (WT)-pendrin. 3-2: Assay of Cl^−/I^− exchange activity CHO-K1” for “CHO-K1”, “50” for “1, 3, 10, 30 and 100”, “Then,” for “Then”, “NaI-substituted” for “Na-substituted”

| SMILES | inhibition at 1 µM | inhibition at 3 µM | inhibition at 10 µM | inhibition at 30 µM | inhibition at 100 µM |
| --- | --- | --- | --- | --- | --- |
| O=C(O)c1[nH]c2ccc(Cl)cc2c1CC(=O)N1CCN(c2ccc(C(F)(F)F)cc2)CC1 [YPI-A4779, 5-Chloro-3-(2-oxo-2-(4-(4-(trifluoromethyl)phenyl)piperazin-1-yl)ethyl)-1H-indole-2-carboxylic acid] | < 20% | < 20% | 66.7% | 92.7% | 95.3% |
| O=C(O)c1[nH]c2ccc(Cl)cc2c1CC(=O)N1CCN(c2ccccc2C(F)(F)F)CC1 [YPI-A4781, 5-Chloro-3-(2-oxo-2-(4-(2-(trifluoromethyl)phenyl)piperazin-1-yl)ethyl)-1H-indole-2-carboxylic acid] | < 20% | 21.5% | 71.4% | 93.8% | 95.6% |
| Cc1cccc(C)c1N1CCN(C(=O)Cc2c(C(=O)O)[nH]c3ccc(Cl)cc23)CC1 [YPI-A4783, 5-Chloro-3-(2-(4-(2,6-dimethylphenyl)piperazin-1-yl)-2-oxoethyl)-1H-indole-2-carboxylic acid] | 39.9% | 74.5% | 100% | 100% | 100% |
| Cc1cccc(N2CCN(C(=O)Cc3c(C(=O)O)[nH]c4ccc(Cl)cc34)CC2)c1C [YPI-A4799, 5-Chloro-3-(2-(4-(2,3-dimethylphenyl)piperazin-1-yl)-2-oxoethyl)-1H-indole-2-carboxylic acid] | 27.9% | 65.3% | 94.2% | 95.5% | 97.1% |
| Cc1ccc(N2CCN(C(=O)Cc3c(C(=O)O)[nH]c4ccc(Cl)cc34)CC2)c(C)c1 [YPI-A4801, 5-Chloro-3-(2-(4-(2,4-dimethylphenyl)piperazin-1-yl)-2-oxoethyl)-1H-indole-2-carboxylic acid] | 40.9% | 72.8% | 95.4% | 96.7% | 97.4% |
| O=C(O)c1[nH]c2ccc(Cl)cc2c1CC(=O)N1CCN(c2ccccc2Cl)CC1 [YPI-A4803, 5-Chloro-3-(2-(4-(2-chlorophenyl)piperazin-1-yl)-2-oxoethyl)-1H-indole-2-carboxylic acid] | < 20% | < 20% | 39.4% | 73.9% | 95.7% |
| O=C(O)c1[nH]c2ccc(Cl)cc2c1CC(=O)N1CCN(c2ccc(Cl)cc2)CC1 [YPI-A4843, 5-Chloro-3-(2-(4-(4-chlorophenyl)piperazin-1-yl)-2-oxoethyl)-1H-indole-2-carboxylic acid] | < 20% | < 20% | 40.3% | 91.4% | 92.1% |
| O=C(O)c1[nH]c2ccc(Cl)cc2c1CC(=O)N1CCN(c2ccccc2Br)CC1 [YPI-A4844, 3-(2-(4-(2-Bromophenyl)piperazin-1-yl)-2-oxoethyl)-5-chloro-1H-indole-2-carboxylic acid] | < 20% | < 20% | 59.7% | 92.5% |  |
| O=C(O)c1[nH]c2ccc(Cl)cc2c1CC(=O)N1CCN(c2cccc(Br)c2)CC1 [YPI-A4845, 3-(2-(4-(3-Bromophenyl)piperazin-1-yl)-2-oxoethyl)-5-chloro-1H-indole-2-carboxylic acid] | < 20% | < 20% | 35.1% | 88.8% |  |
| O=C(O)c1[nH]c2ccc(Cl)cc2c1CC(=O)N1CCN(c2ccc(Br)cc2)CC1 [YPI-A4846, 3-(2-(4-(4-Bromophenyl)piperazin-1-yl)-2-oxoethyl)-5-chloro-1H-indole-2-carboxylic acid] | < 20% | < 20% | 73.3% | 94.7% |  |
| Cc1ccccc1N1CCN(C(=O)Cc2c(C(=O)O)[nH]c3ccc(Cl)cc23)CC1 [YPI-A4847, 5-Chloro-3-(2-oxo-2-(4-(o-tolyl)piperazin-1-yl)ethyl)-1H-indole-2-carboxylic acid] | < 20% | < 20% | 60.6% | 91.5% | 92.4% |
| Cc1cccc(N2CCN(C(=O)Cc3c(C(=O)O)[nH]c4ccc(Cl)cc34)CC2)c1 [YPI-A4848, 5-Chloro-3-(2-oxo-2-(4-(m-tolyl)piperazin-1-yl)ethyl)-1H-indole-2-carboxylic acid] | < 20% | < 20% | < 20% | 58.9% | 90.5% |
| Cc1ccc(N2CCN(C(=O)Cc3c(C(=O)O)[nH]c4ccc(Cl)cc34)CC2)cc1 [YPI-A4849, 5-Chloro-3-(2-oxo-2-(4-(p-tolyl)piperazin-1-yl)ethyl)-1H-indole-2-carboxylic acid] | < 20% | < 20% | 36.8% | 90.9% | 92.3% |
| COc1ccccc1N1CCN(C(=O)Cc2c(C(=O)O)[nH]c3ccc(Cl)cc23)CC1 [YPI-A4876, 5-Chloro-3-(2-(4-(2-methoxyphenyl)piperazin-1-yl)-2-oxoethyl)-1H-indole-2-carboxylic acid] | < 20% | < 20% | < 20% | < 20% | 56.8% |
| COc1cccc(N2CCN(C(=O)Cc3c(C(=O)O)[nH]c4ccc(Cl)cc34)CC2)c1 [YPI-A4877, 5-Chloro-3-(2-(4-(3-methoxyphenyl)piperazin-1-yl)-2-oxoethyl)-1H-indole-2-carboxylic acid] | < 20% | < 20% | < 20% | < 20% | 67.5% |
| COc1ccc(N2CCN(C(=O)Cc3c(C(=O)O)[nH]c4ccc(Cl)cc34)CC2)cc1 [YPI-A4878, 5-Chloro-3-(2-(4-(4-methoxyphenyl)piperazin-1-yl)-2-oxoethyl)-1H-indole-2-carboxylic acid] | < 20% | < 20% | < 20% | < 20% | 79.4% |
| CC(C)(C)OC(=O)N1CCN(C(=O)Cc2c(C(=O)O)[nH]c3ccc(Cl)cc23)CC1 [YPI-A4879, 3-(2-(4-(tert-butoxycarbonyl)piperazin-1-yl)-2-oxoethyl)-5-chloro-1H-indole-2-carboxylic acid] | < 20% | < 20% | < 20% | < 20% | < 20% |
